Data on 46 molecules can be found in patent US12281114B2, “NK3 modulators and uses thereof” (Kallyope, Inc., priority 2023, dated 2025).

The assay addresses T1, human NK3 (Homo sapiens, UniProt P29371).
T1 sequence (P29371 1-465): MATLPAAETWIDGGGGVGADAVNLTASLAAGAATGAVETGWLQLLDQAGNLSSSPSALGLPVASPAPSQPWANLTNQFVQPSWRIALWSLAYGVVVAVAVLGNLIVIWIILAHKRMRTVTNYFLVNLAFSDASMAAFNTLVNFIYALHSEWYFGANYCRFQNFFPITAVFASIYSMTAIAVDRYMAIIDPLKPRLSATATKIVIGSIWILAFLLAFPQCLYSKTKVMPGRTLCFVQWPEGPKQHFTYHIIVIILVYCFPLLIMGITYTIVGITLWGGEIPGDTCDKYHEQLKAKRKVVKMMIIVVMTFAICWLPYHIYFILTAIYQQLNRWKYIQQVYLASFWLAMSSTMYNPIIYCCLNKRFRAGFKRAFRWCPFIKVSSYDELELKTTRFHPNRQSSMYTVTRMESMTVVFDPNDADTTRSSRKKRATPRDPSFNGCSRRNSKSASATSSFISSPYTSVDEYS
Nature of the assay: FLIPR calcium assay in antagonist mode (NKB EC70 challenge). The settings on record: stable cell line expressing human recombinant NK3; antagonist mode vs EC70 of NKB agonist. Format: cell-based. On the procedure:
Stable Cell Lines: A human recombinant NK3 Tachykinin Receptor stable cell line was purchased from GenScript (Genscript, Cat. #M00201; GenBank Accession Number NM 001059). The cell line was cultured according to manufacturer instructions, using 100 μg/mL Hygromycin B (Invitrogen, Cat. #D2650) for selective pressure. Cells were then collected using 0.05% Trypsin-EDTA (GIBCO, Cat. #25300) and frozen in a freezing media containing 90% FBS (Gibco, Cat. #10099-141) and 10% DMSO (Sigma, Cat. #D2650) at a density of 30×10^6 cells/mL. This bank of assay-ready frozen cells was later used in FLIPR assays to evaluate the potency and efficacy of NK3 antagonist test compounds.
FLIPR Calcium Assay: The FLIPR assay, used to measure changes in intracellular calcium levels, was performed in a 384-well plate format using the FLIPR Calcium 6 assay kit (Molecular Devices, Cat. #R8190). Assay-ready frozen cells expressing human NK3 (Genscript, Cat. #M00201) were thawed, washed, trypsinized, counted using a ViCell, and plated in cell growth media without Hygromycin at a density of […] (40 μL/well).
Calculation of NKB EC70: An EC70 concentration of NKB needed to be determined for competition against test antagonists prior to the compound screen. NKB agonist (Phoenix Pharmaceuticals, Cat. #046-26) was diluted in DMSO at 1800 nM (6-fold the final concentration) and serially diluted to generate a 13-point dose response curve (3-fold serial dilution) using an ECHO. 20 μL of 1× stimulation buffer was added using the BRAVO. 10 μL of DMSO was added while on the FLIPR (described as the first addition), then the RFU signal was measured for 10 minutes. The NKB titration was added to the plate, then the RFU signal was measured for 10 minutes (described as the second addition) on the FLIPR. The EC70 concentration was determined by using a four-parameter fit on GraphPad Prism prior to performing the compound screen.
FLIPR Screen in Antagonist Mode: Test compounds were prepared at 60 μM (6-fold the final concentration) and spotted in 370 nL using the Janus and ECHO. 20 μL of assay buffer was added using the BRAVO. Calcium-sensitive dye was reconstituted in loading buffer (Molecular Devices, Cat. #R8190). Media was removed from the cell plate using a Bluecat Cell Washer, and 40 μL of dye was added to the cell plate using the Apricot. The plate was incubated for 2 hours at 37° C., 5% CO2, then transferred to the FLIPR instrument. 10 μL of compound was added on the FLIPR (described as the first addition), then the RFU signal was measured for 10 minutes. EC70 of NKB agonist was added to the entire plate (described as the second addition), and the RFU signal was measured for 10 minutes on the FLIPR. RFU (relative fluorescence units) signals for first baseline, first peak, second baseline, and second peak were measured using the FLIPR. RFU signal (second peak minus second baseline) for positive (Max, at 10 μM antagonist) and negative (Min, at 0 μM antagonist) controls were used to normalize data and generate values for % Activity. IC50 and efficacy values were determined using a standard curve fitting equation on Dotmatics.
In the case of `Cc1nn(C)cc1-c1ccccc1-c1nc2cc(C(=O)N3CC[C@@H](N4CCNCC4)C3)ccn2c1C` (single isomer, unassigned) [Compound 480], the IC50 – broadly, the concentration needed to halve the response being measured – is 20.7 nM.
As to `Cc1nn(C)cc1-c1ccccc1-c1nc2cc(C(=O)N3CC[C@H](N4CCNCC4)C3)ccn2c1C` (single isomer, unassigned) [Compound 481], the 50% inhibitory concentration (IC50) came to 16.1 nM.
Take `Cc1c(-c2ccccc2-c2nc3cc(C(=O)N[C@@H]4CO[C@H]5[C@@H]4OC[C@H]5O)ccn3c2Cl)cnn1C` [Compound 142]: the 50% inhibitory concentration (IC50) amounted to 6.6 nM.
As for `Cc1nn(C)cc1-c1ccccc1-c1nc2cc(C(=O)NC3CCNCC3)ccn2c1C` [Compound 264], the figure is 10.7 nM.
The result for `Cc1nn(C)cc1-c1ccccc1-c1nc2cc(C(=O)N3CCNCC3)ccn2c1C` [Compound 271] reads 20.3 nM; that for `Cc1c(-c2ccccc2-c2nc3cc(C(=O)N[C@H]4C[C@@](C)(C(=O)O)C4)ccn3c2C)cnn1C` [Compound 295], 131 nM.
As to `Cc1nn(C)cc1-c1ccccc1-c1nc2cc(C(=O)N[C@H]3C[C@@](C)(C(=O)O)C3)ccn2c1C` [Compound 298], the IC50 was 26.8 nM.
The result for `Cc1c(-c2ccccc2-c2nc3cc(C(=O)N[C@H]4C[C@](C)(C(=O)O)C4)ccn3c2C)cnn1C` [Compound 312] reads 41.7 nM.
The result for `Cc1nn(C)cc1-c1ccccc1-c1nc2cc(C(=O)N[C@H]3C[C@](C)(C(=O)O)C3)ccn2c1C` [Compound 317] reads 7.03 nM.
The result for `Cc1nn(C)cc1-c1ccccc1-c1nc2cc(C(=O)N[C@@H]3CO[C@H]4[C@@H]3OC[C@H]4O)ccn2c1C` [Compound 425] reads 3.16 nM.
As for `Cc1nn(C)cc1-c1ccccc1-c1nc2cc(C(=O)NC34CC(O)(C3)C4)ccn2c1Cl` [Compound 430], the IC50 turned out to be 2.3 nM.
As for `Cc1nn(C)cc1-c1ccccc1-c1nc2cc(C(=O)N[C@@H]3CO[C@H]4[C@@H]3OC[C@H]4O)ccn2c1C#N` [Compound 431], the figure is 4.03 nM; as for `Cc1nn(C)cc1-c1ccccc1-c1nc2cc(C(=O)N3C[C@@H]4C[C@H]3C(=O)N4)ccn2c1Cl` [Compound 434], 1.47 nM.
As for `Cc1nn(C)cc1-c1ccccc1-c1nc2cc(C(=O)O)ccn2c1Cl` [Compound 436], the figure is 67.5 nM; as for `Cc1nn(C)cc1-c1ccccc1-c1nc2cc(C(=O)N3C[C@H](N)[C@@H](O)C3)ccn2c1Cl` [Compound 442], 15.1 nM.
In the case of `Cc1nn(C)cc1-c1ccccc1-c1nc2cc(C(=O)N3CCN(C4CCNC4)CC3)ccn2c1Cl` (stereo not shown) [Compound 443], the IC50 came to 11.3 nM.
`Cc1nn(C)cc1-c1ccccc1-c1nc2cc(C(=O)N[C@H]3C[C@](C)(O)C3)ccn2c1Cl` [Compound 447]: the half-maximal inhibitory concentration (IC50) came out at 3.19 nM.
As for `Cc1nn(C)cc1-c1ccccc1-c1nc2cc(C(=O)NCC(C)(C)O)ccn2c1Cl` [Compound 448], the figure is 6.01 nM; as for `CC(=O)NCCNC(=O)c1ccn2c(Cl)c(-c3ccccc3-c3cn(C)nc3C)nc2c1` [Compound 451], 7.13 nM; as for `Cc1nn(C)cc1-c1ccccc1-c1nc2cc(C(=O)N3CCc4c[nH]nc4C3)ccn2c1Cl` [Compound 452], 2.79 nM.
The result for `Cc1nn(C)cc1-c1ccccc1-c1nc2cc(C(=O)NC[C@@H]3CNCCO3)ccn2c1Cl` [Compound 455] reads 1.74 nM.
As for `Cc1nn(C)cc1-c1ccccc1-c1nc2cc(C(=O)NCCC(C)(C)O)ccn2c1Cl` [Compound 459], the figure is 1.86 nM; as for `Cc1nn(C)cc1-c1ccccc1-c1nc2cc(C(=O)N[C@H]3C[C@@](C)(O)C3)ccn2c1Cl` [Compound 460], 2.55 nM; as for `Cc1nn(C)cc1-c1ccccc1-c1nc2cc(C(=O)NC[C@H]3CNCCO3)ccn2c1Cl` [Compound 461], 3.41 nM.
Turning to `Cc1nn(C)cc1-c1cccc(F)c1-c1nc2cc(C(=O)N[C@@H]3CO[C@H]4[C@@H]3OC[C@H]4O)ccn2c1C#N` [Compound 464], the IC50 came out at 2.9 nM.
As for `Cc1nn(C)cc1-c1cccc(F)c1-c1nc2cc(C(=O)N3C[C@@H]4C[C@H]3C(=O)N4)ccn2c1C#N` [Compound 468], the figure is 4.27 nM; as for `Cc1nn(C)cc1-c1cccc(F)c1-c1nc2cc(C(=O)N[C@@H]3CO[C@H]4[C@@H]3OC[C@H]4O)ccn2c1Cl` [Compound 470], 1.41 nM; as for `Cc1nn(C)cc1-c1ccccc1-c1nc2cc(C(=O)N[C@@H]3CO[C@H]4[C@@H]3OC[C@@H]4O)ccn2c1Cl` [Compound 473], 2.26 nM.
With `Cc1n[nH]cc1-c1ccccc1-c1nc2cc(C(=O)N[C@@H]3CO[C@H]4[C@@H]3OC[C@H]4O)ccn2c1Cl` [Compound 475], the IC50 came to 5.74 nM.
Regarding `CCn1cc(-c2ccccc2-c2nc3cc(C(=O)N[C@@H]4CO[C@H]5[C@@H]4OC[C@H]5O)ccn3c2Cl)c(C)n1` [Compound 476], the IC50 was 3.31 nM.
As for `CCn1ncc(-c2ccccc2-c2nc3cc(C(=O)N[C@@H]4CO[C@H]5[C@@H]4OC[C@H]5O)ccn3c2Cl)c1C` [Compound 477], the figure is 2.19 nM; as for `Cc1nn(C)cc1-c1ccccc1-c1nc2cc(C(=O)N3CCc4n[nH]nc4C3)ccn2c1Cl` [Compound 486], 6.85 nM; as for `Cc1nn(C)cc1-c1cccc(F)c1-c1nc2cc(C(=O)N3C[C@@H]4C[C@H]3C(=O)N4)ccn2c1Cl` [Compound 487], 2.21 nM.
As for `Cc1nn(C)cc1-c1ccccc1-c1nc2cc(C(=O)NC[C@@H](C)N3CCNC3=O)ccn2c1Cl` [Compound 490], the figure is 3.4 nM; as for `Cc1nn(C)cc1-c1ccccc1-c1nc2cc(C(=O)NCCS(N)(=O)=O)ccn2c1Cl` [Compound 614], 2.65 nM; as for `Cc1nn(C)cc1-c1ccccc1-c1nc2cc(C(=O)NC34COC(CO)(C3)C4)ccn2c1Cl` [Compound 615], 2.5 nM.
`Cc1nn(C)cc1-c1ccccc1-c1nc2cc(C(=O)NCC34CC(CO)(CO3)C4)ccn2c1Cl` [Compound 616]: the IC50 was found to be 1.45 nM.
As for `Cc1nn(C)cc1-c1ccccc1-c1nc2cc(C(=O)N[C@H]3CO[C@H]4[C@@H]3OC[C@@H]4N)ccn2c1Cl` [Compound 617], the figure is 3.18 nM.
As for `Cc1nn(C)cc1-c1ccccc1-c1nc2cc(C(=O)N[C@@H]3C[C@H]3CO)ccn2c1Cl` [Compound 619], the figure is 1.24 nM; as for `Cc1nn(C)cc1-c1ccccc1-c1nc2cc(C(=O)NCC34CC(CO)(CCO3)C4)ccn2c1Cl` [Compound 624], 0.59 nM.
The result for `Cc1nn(C)cc1-c1ccccc1-c1nc2cc(C(=O)NC[C@H]3C[C@](C)(O)C3)ccn2c1Cl` [Compound 629] reads 1.06 nM.
Take `Cc1nn(C)cc1-c1ccccc1-c1nc2cc(C(=O)NC[C@H]3C[C@@](C)(O)C3)ccn2c1Cl` [Compound 631]: the IC50 was determined as 0.78 nM.
With `Cc1nn(C)cc1-c1ccccc1-c1nc2cc(C(=O)NC[C@]34C[C@](O)(C3)C4)ccn2c1Cl` [Compound 633], the IC50 was determined as 1.53 nM.
The result for `Cc1nn(C)cc1-c1ccccc1-c1nc2cc(C(=O)NC[C@]34C[C@](CO)(C3)C4)ccn2c1Cl` [Compound 635] reads 1.65 nM; that for `Cc1nn(C)cc1-c1ccccc1-c1nc2cc(C(=O)N3CC(=O)N[C@@H](CO)C3)ccn2c1Cl` [Compound 638], 25.8 nM.
Regarding `Cc1nn(C)cc1-c1ccccc1-c1nc2cc(C(=O)N3CC(=O)N[C@H](CO)C3)ccn2c1Cl` [Compound 639], the IC50 was 3.81 nM.
